Tests used:
AMPA receptors = assay: Whole-cell patch-clamp, AMPA-induced currents in acutely isolated hippocampal neurons; type: cell-based, rat; details: 10 μM WZB117
Procedure: Hippocampal neurons were obtained from Sprague-Dawley rats (aged P7-14). Briefly, the isolated hippocampal tissues were cut into approximately […] slices along the sagittal plane and were digested with 3 mg/ml proteinase (Sigma-Aldrich) at 32°C for 8 min. Then 1 mg/ml bovine serum albumin (Sangon Biotech) and 1 mg/ml trypsin inhibitor (Sigma-Aldrich) were used to stop the digestion. A few slices of the hippocampus were gently blown into single cells with the dissecting solution, then transferred to a dish and left to rest for 20 min before experiments. The dishes were preprocessed. Essentially, the bottom of the dish was covered with discarded cell suspension the day before the experiment and was washed and dried the next day, which prevented the neurons from sticking to the bottom too tightly. The dissecting solution contained (in mM): 82 Na2SO4, 30 K2SO4, 5 MgCl2, 1 Na pyruvate, 10 HEPES, and 20 glucose. The pH was adjusted to 7.2 using NaOH ([Xie et al., 2020]).
Whole-cell patch-clamp recordings were performed at room temperature (22–25°C) using an EPC-10 amplifier and Patch Master Software (HEKA). Pipettes were pulled from borosilicate glass capillaries (World Precision Instruments), and the resistances were 3–5 MΩ when filled with the intracellular solution. […]

GluN1/GluN2A = target: T1, GluN1/GluN2A (Homo sapiens, UniProt Q05586+Q12879); assay: GluN1/GluN2A currents (data analyzed from Figure 3D, TEVC in Xenopus oocytes); type: cell-based; details: 30 μM WZB117
T1 construct: expressed in transfected cells; host or cells: Xenopus oocytes
T1 sequence (Q12879 23-1464, other chains not shown): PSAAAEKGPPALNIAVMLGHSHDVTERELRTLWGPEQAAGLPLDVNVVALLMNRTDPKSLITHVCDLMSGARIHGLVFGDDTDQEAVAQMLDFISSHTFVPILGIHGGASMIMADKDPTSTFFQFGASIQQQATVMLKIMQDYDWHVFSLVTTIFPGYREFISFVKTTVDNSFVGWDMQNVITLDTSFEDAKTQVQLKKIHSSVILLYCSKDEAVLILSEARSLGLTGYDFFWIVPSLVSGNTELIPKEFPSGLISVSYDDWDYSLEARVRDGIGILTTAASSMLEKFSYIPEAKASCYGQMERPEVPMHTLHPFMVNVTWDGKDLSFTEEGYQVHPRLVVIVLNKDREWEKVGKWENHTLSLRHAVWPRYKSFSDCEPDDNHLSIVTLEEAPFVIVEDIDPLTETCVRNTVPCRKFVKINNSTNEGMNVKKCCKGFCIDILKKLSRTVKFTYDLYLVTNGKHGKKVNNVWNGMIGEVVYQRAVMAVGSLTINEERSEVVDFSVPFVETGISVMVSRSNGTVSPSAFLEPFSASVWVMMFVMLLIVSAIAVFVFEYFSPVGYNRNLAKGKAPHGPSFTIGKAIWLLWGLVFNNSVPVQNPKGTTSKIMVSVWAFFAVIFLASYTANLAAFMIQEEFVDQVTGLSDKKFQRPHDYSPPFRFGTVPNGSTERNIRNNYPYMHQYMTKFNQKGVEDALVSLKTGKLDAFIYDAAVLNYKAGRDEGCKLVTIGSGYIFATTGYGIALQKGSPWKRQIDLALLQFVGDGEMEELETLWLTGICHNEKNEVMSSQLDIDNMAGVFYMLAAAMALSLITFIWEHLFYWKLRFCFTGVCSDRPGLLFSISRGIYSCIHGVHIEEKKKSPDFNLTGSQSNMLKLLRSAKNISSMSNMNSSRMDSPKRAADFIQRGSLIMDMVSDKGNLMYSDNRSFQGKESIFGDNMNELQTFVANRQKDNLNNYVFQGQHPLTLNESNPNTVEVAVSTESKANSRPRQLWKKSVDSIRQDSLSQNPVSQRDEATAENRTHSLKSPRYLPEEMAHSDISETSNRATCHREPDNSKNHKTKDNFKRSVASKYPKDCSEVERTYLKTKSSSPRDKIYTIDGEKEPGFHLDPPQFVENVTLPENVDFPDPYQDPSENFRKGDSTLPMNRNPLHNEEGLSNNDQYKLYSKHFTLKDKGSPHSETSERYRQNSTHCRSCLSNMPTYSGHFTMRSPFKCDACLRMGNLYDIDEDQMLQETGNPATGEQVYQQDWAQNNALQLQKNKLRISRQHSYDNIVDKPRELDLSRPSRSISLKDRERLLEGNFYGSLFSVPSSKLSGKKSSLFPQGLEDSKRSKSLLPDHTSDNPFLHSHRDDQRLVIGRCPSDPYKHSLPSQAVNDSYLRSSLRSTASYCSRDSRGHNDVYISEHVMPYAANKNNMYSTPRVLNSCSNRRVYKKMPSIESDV
Procedure: Two-electrode voltage-clamp (TEVC) recordings were performed on Xenopus oocytes expressing various subtypes of recombinant NMDARs. Each oocyte was injected with a mixture of 0.5–1.0 ng cDNAs or cRNAs encoding wild-type (WT) or mutant GluN1 (GluN1-1a or GluN1-4a) and GluN2 (2A-2D) or GluN3 (3A-3B) at a ratio of 1:1. The mutant GluN1-4a ^F484A/T518L was injected together with GluN3B to boost the currents of GluN1/GluN3B receptors, and WT GluN1-1a was used unless otherwise stated. The cRNAs of GluN1-4a, GluN3A and GluN3B were transcribed from corresponding DNAs using the mMESSAGE mMACHINE T7 Ultra kit (Life Technologies) according to the manufacturer’s instructions, and the others not specified were cDNAs. TEVC recording was performed 24–72 h post injection in extracellular solution containing (in mM): 100 NaCl, 0.3 BaCl2, 2.5 KCl, 0.01 DTPA and 5 HEPES, and the pH was adjusted to 7.3 using NaOH. All recordings were carried out at a holding potential of −60 mV.
Supplementary Figure S3 Effects of WZB117 on currents from HEK-293 cells co-expressing GluN1/GluN2A/GluN3A subunits. GluN1/GluN2A/GluN3A receptors were expressed on HEK-293 cells at a ratio of GluN1-EGFP: GluN2A: GluN3A = 1:1:2. The GluN1/GluN2A/GluN3A receptors were stimulated by 100 μM glutamate and 100 μM glycine. The data of GluN1/GluN2A were analyzed from Figure 3D. […]

I drug/I cotrol (GluN1/GluN2A): 0.84 ± 0.01
Structure (SMILES): O=C(Oc1cccc(F)c1OC(=O)c1cccc(O)c1)c1cccc(O)c1 [WZB117, 3-fluoro-1,2-phenylene bis(3-hydroxybenzoate)]
effect on AMPA-induced currents (AMPA receptors): almost ineffective

Source: paper PMC9218946, “Identification of a Subtype-Selective Allosteric Inhibitor of GluN1/GluN3 NMDA Receptors” (Frontiers in Pharmacology, 2022)
